± gives the expanded uncertainty stated by the source.
Assay: xn = mol fraction of the nth substance listed
Settings: 100 kPa, Liquid; for mass density: Vibrating tube method; for speed of sound: 288.15 K, Frequency=5 MHz, Pulse-echo method

OCCCCCO [1,5-pentanediol] + O
mass density (278.15 K, x1 = 0.005): 999.89 ± 0.53 kg/m3 | mass density (278.15 K, x1 = 0.0101): 1000.22 ± 1 kg/m3 | mass density (278.15 K, x1 = 0.0196): 1001.39 ± 1 kg/m3 | mass density (278.15 K, x1 = 0.0251): 1002.34 ± 1 kg/m3 | mass density (278.15 K, x1 = 0.0304): 1003.39 ± 1 kg/m3 | mass density (278.15 K, x1 = 0.05): 1006.63 ± 1 kg/m3 | mass density (278.15 K, x1 = 0.0769): 1009.88 ± 1.1 kg/m3 | mass density (278.15 K, x1 = 0.1002): 1012.01 ± 1.1 kg/m3 | mass density (278.15 K, x1 = 0.1438): 1013.87 ± 1.1 kg/m3 | mass density (278.15 K, x1 = 0.1845): 1014.45 ± 1.1 kg/m3 | mass density (278.15 K, x1 = 0.2503): 1014 ± 1.2 kg/m3 | mass density (278.15 K, x1 = 0.3): 1013.14 ± 1.2 kg/m3 | mass density (278.15 K, x1 = 0.3343): 1012.59 ± 1.3 kg/m3 | mass density (278.15 K, x1 = 0.4171): 1010.69 ± 1.4 kg/m3 | mass density (278.15 K, x1 = 0.454): 1009.8 ± 1.4 kg/m3 | mass density (278.15 K, x1 = 0.5003): 1008.7 ± 1.5 kg/m3 | mass density (278.15 K, x1 = 0.5362): 1007.8 ± 1.5 kg/m3 | mass density (278.15 K, x1 = 0.6177): 1006 ± 1.7 kg/m3 | mass density (278.15 K, x1 = 0.6478): 1005.3 ± 1.7 kg/m3 | mass density (278.15 K, x1 = 0.7025): 1004.2 ± 1.8 kg/m3 | mass density (278.15 K, x1 = 0.7504): 1003.3 ± 1.9 kg/m3 | mass density (278.15 K, x1 = 0.7927): 1002.5 ± 2 kg/m3 | mass density (278.15 K, x1 = 0.8605): 1001.1 ± 2.1 kg/m3 | mass density (278.15 K, x1 = 0.9004): 1000.2 ± 2.2 kg/m3 | mass density (278.15 K, x1 = 0.9496): 999.1 ± 2.3 kg/m3 | mass density (278.15 K, x1 = 1): 998 ± 2.1 kg/m3 | mass density (283.15 K, x1 = 0.005): 999.55 ± 0.53 kg/m3 | mass density (283.15 K, x1 = 0.0101): 999.78 ± 1 kg/m3 | mass density (283.15 K, x1 = 0.0196): 1000.73 ± 1 kg/m3 | mass density (283.15 K, x1 = 0.0251): 1001.54 ± 1 kg/m3 | mass density (283.15 K, x1 = 0.0304): 1002.41 ± 1 kg/m3 | mass density (283.15 K, x1 = 0.05): 1005.19 ± 1 kg/m3 | mass density (283.15 K, x1 = 0.0769): 1007.89 ± 1.1 kg/m3 | mass density (283.15 K, x1 = 0.1002): 1009.64 ± 1.1 kg/m3 | mass density (283.15 K, x1 = 0.1438): 1011.18 ± 1.1 kg/m3 | mass density (283.15 K, x1 = 0.1845): 1011.58 ± 1.1 kg/m3 | mass density (283.15 K, x1 = 0.2503): 1010.96 ± 1.2 kg/m3 | mass density (283.15 K, x1 = 0.3): 1010.06 ± 1.2 kg/m3 | mass density (283.15 K, x1 = 0.3343): 1009.43 ± 1.3 kg/m3 | mass density (283.15 K, x1 = 0.4171): 1007.58 ± 1.4 kg/m3 | mass density (283.15 K, x1 = 0.454): 1006.71 ± 1.4 kg/m3 | mass density (283.15 K, x1 = 0.5003): 1005.6 ± 1.5 kg/m3 | mass density (283.15 K, x1 = 0.5362): 1004.7 ± 1.5 kg/m3 | mass density (283.15 K, x1 = 0.6177): 1003 ± 1.7 kg/m3 | mass density (283.15 K, x1 = 0.6478): 1002.3 ± 1.7 kg/m3 | mass density (283.15 K, x1 = 0.7025): 1001.2 ± 1.8 kg/m3 | mass density (283.15 K, x1 = 0.7504): 1000.3 ± 1.9 kg/m3 | mass density (283.15 K, x1 = 0.7927): 999.4 ± 2 kg/m3 | mass density (283.15 K, x1 = 0.8605): 998.1 ± 2.1 kg/m3 | mass density (283.15 K, x1 = 0.9004): 997.3 ± 2.2 kg/m3 | mass density (283.15 K, x1 = 0.9496): 996.1 ± 2.3 kg/m3 | mass density (283.15 K, x1 = 1): 995 ± 2.1 kg/m3 | speed of sound (x1 = 0.0001): 1467 ± 1.1 m/s | speed of sound (x1 = 0.0002): 1467.6 ± 1.1 m/s | speed of sound (x1 = 0.0004): 1468.5 ± 1.1 m/s | speed of sound (x1 = 0.0007): 1469.7 ± 1.1 m/s | speed of sound (x1 = 0.001): 1471.1 ± 1.1 m/s | speed of sound (x1 = 0.0013): 1472.4 ± 1.1 m/s | speed of sound (x1 = 0.0018): 1474.5 ± 1.1 m/s | speed of sound (x1 = 0.0025): 1477.3 ± 1.1 m/s | speed of sound (x1 = 0.0032): 1480.3 ± 1.1 m/s | speed of sound (x1 = 0.0039): 1483.3 ± 1.1 m/s | speed of sound (x1 = 0.0047): 1486.5 ± 1.1 m/s | speed of sound (x1 = 0.0053): 1489.1 ± 1.1 m/s | speed of sound (x1 = 0.0059): 1491.7 ± 1.1 m/s | speed of sound (x1 = 0.0066): 1494.6 ± 1.1 m/s | speed of sound (x1 = 0.0074): 1497.4 ± 1.1 m/s | speed of sound (x1 = 0.0079): 1499.7 ± 1.1 m/s | speed of sound (x1 = 0.0086): 1502.2 ± 1.1 m/s | speed of sound (x1 = 0.0092): 1504.6 ± 1.1 m/s | speed of sound (x1 = 0.0098): 1507 ± 1.1 m/s | speed of sound (x1 = 0.0105): 1509.5 ± 1.1 m/s | speed of sound (x1 = 0.0112): 1512 ± 1.2 m/s | speed of sound (x1 = 0.0118): 1514.3 ± 1.2 m/s | speed of sound (x1 = 0.0125): 1516.8 ± 1.2 m/s | speed of sound (x1 = 0.0131): 1519 ± 1.2 m/s | speed of sound (x1 = 0.0138): 1521.4 ± 1.2 m/s | speed of sound (x1 = 0.0144): 1523.8 ± 1.2 m/s | speed of sound (x1 = 0.0151): 1526.1 ± 1.2 m/s | speed of sound (x1 = 0.0157): 1528.2 ± 1.2 m/s | speed of sound (x1 = 0.0164): 1530.5 ± 1.2 m/s | speed of sound (x1 = 0.0171): 1532.7 ± 1.2 m/s | speed of sound (x1 = 0.0177): 1535 ± 1.2 m/s | speed of sound (x1 = 0.0184): 1537.1 ± 1.2 m/s | speed of sound (x1 = 0.0188): 1538.3 ± 1.2 m/s | speed of sound (x1 = 0.0193): 1540.1 ± 1.2 m/s | speed of sound (x1 = 0.0199): 1541.8 ± 1.2 m/s | speed of sound (x1 = 0.0204): 1543.6 ± 1.2 m/s | speed of sound (x1 = 0.021): 1545.5 ± 1.2 m/s | speed of sound (x1 = 0.0219): 1548.2 ± 1.2 m/s | speed of sound (x1 = 0.0226): 1550.3 ± 1.2 m/s | speed of sound (x1 = 0.0233): 1552.4 ± 1.2 m/s | speed of sound (x1 = 0.024): 1554.5 ± 1.2 m/s | speed of sound (x1 = 0.0247): 1556.6 ± 1.2 m/s | speed of sound (x1 = 0.0256): 1559.3 ± 1.2 m/s | speed of sound (x1 = 0.0266): 1562.2 ± 1.2 m/s | speed of sound (x1 = 0.0278): 1565.4 ± 1.2 m/s | speed of sound (x1 = 0.0289): 1568.3 ± 1.2 m/s | speed of sound (x1 = 0.0299): 1571 ± 1.2 m/s | speed of sound (x1 = 0.0309): 1573.7 ± 1.2 m/s | speed of sound (x1 = 0.0319): 1576.4 ± 1.2 m/s | speed of sound (x1 = 0.0331): 1579.3 ± 1.2 m/s | speed of sound (x1 = 0.0342): 1582.3 ± 1.2 m/s | speed of sound (x1 = 0.0353): 1584.9 ± 1.2 m/s | speed of sound (x1 = 0.0365): 1587.7 ± 1.2 m/s | speed of sound (x1 = 0.0376): 1590.3 ± 1.2 m/s | speed of sound (x1 = 0.0387): 1592.9 ± 1.2 m/s | speed of sound (x1 = 0.0398): 1595.3 ± 1.2 m/s | speed of sound (x1 = 0.0409): 1597.9 ± 1.2 m/s | speed of sound (x1 = 0.042): 1600.2 ± 1.2 m/s | speed of sound (x1 = 0.0431): 1602.6 ± 1.2 m/s | speed of sound (x1 = 0.0445): 1605.6 ± 1.2 m/s | speed of sound (x1 = 0.0456): 1607.8 ± 1.2 m/s | speed of sound (x1 = 0.0473): 1611.2 ± 1.2 m/s | speed of sound (x1 = 0.0482): 1612.9 ± 1.2 m/s | speed of sound (x1 = 0.049): 1614.5 ± 1.2 m/s | speed of sound (x1 = 0.0499): 1616.2 ± 1.2 m/s | speed of sound (x1 = 0.0513): 1618.7 ± 1.2 m/s | speed of sound (x1 = 0.0529): 1621.5 ± 1.2 m/s | speed of sound (x1 = 0.0547): 1624.7 ± 1.2 m/s | speed of sound (x1 = 0.0561): 1627.2 ± 1.2 m/s | speed of sound (x1 = 0.0576): 1629.6 ± 1.2 m/s | speed of sound (x1 = 0.0595): 1632.6 ± 1.2 m/s | speed of sound (x1 = 0.0613): 1635.3 ± 1.2 m/s | speed of sound (x1 = 0.0632): 1638.1 ± 1.2 m/s | speed of sound (x1 = 0.0654): 1641.4 ± 1.2 m/s | speed of sound (x1 = 0.0673): 1644 ± 1.2 m/s | speed of sound (x1 = 0.0692): 1646.6 ± 1.2 m/s | speed of sound (x1 = 0.0715): 1649.5 ± 1.2 m/s | speed of sound (x1 = 0.0744): 1653 ± 1.2 m/s | speed of sound (x1 = 0.0768): 1655.8 ± 1.2 m/s | speed of sound (x1 = 0.0796): 1658.9 ± 1.2 m/s | speed of sound (x1 = 0.0824): 1661.8 ± 1.2 m/s | speed of sound (x1 = 0.0856): 1665 ± 1.2 m/s | speed of sound (x1 = 0.0887): 1667.9 ± 1.2 m/s | speed of sound (x1 = 0.0921): 1670.8 ± 1.2 m/s | speed of sound (x1 = 0.0965): 1674.4 ± 1.2 m/s | speed of sound (x1 = 0.1006): 1677.4 ± 1.2 m/s | speed of sound (x1 = 0.1051): 1680.5 ± 1.2 m/s | speed of sound (x1 = 0.1102): 1683.6 ± 1.2 m/s | speed of sound (x1 = 0.1153): 1686.5 ± 1.2 m/s | speed of sound (x1 = 0.1208): 1689.2 ± 1.2 m/s | speed of sound (x1 = 0.1238): 1690.6 ± 1.2 m/s | speed of sound (x1 = 0.1303): 1693.2 ± 1.2 m/s | speed of sound (x1 = 0.1382): 1696 ± 1.3 m/s | speed of sound (x1 = 0.1442): 1697.7 ± 1.3 m/s | speed of sound (x1 = 0.1503): 1699.3 ± 1.3 m/s | speed of sound (x1 = 0.1556): 1700.5 ± 1.3 m/s | speed of sound (x1 = 0.1612): 1701.6 ± 1.3 m/s | speed of sound (x1 = 0.167): 1702.6 ± 1.3 m/s | speed of sound (x1 = 0.1694): 1703 ± 1.3 m/s | speed of sound (x1 = 0.1748): 1703.7 ± 1.3 m/s | speed of sound (x1 = 0.1799): 1704.3 ± 1.3 m/s | speed of sound (x1 = 0.1852): 1704.8 ± 1.3 m/s | speed of sound (x1 = 0.1903): 1705.2 ± 1.3 m/s | speed of sound (x1 = 0.1955): 1705.6 ± 1.3 m/s | speed of sound (x1 = 0.2007): 1705.9 ± 1.3 m/s | speed of sound (x1 = 0.2046): 1706 ± 1.3 m/s
